These results are taken from ChEMBL document CHEMBL2163330, “Dynamic modeling of human 5-lipoxygenase-inhibitor interactions helps to discover novel inhibitors” (J Med Chem, 2012).

As a reminder, the IC50 is the concentration at which inhibition is half-maximal.

Experiment [1] addresses T1, Polyunsaturated fatty acid 5-lipoxygenase (Rattus norvegicus, UniProt P12527).
T1 sequence (P12527 whole entry): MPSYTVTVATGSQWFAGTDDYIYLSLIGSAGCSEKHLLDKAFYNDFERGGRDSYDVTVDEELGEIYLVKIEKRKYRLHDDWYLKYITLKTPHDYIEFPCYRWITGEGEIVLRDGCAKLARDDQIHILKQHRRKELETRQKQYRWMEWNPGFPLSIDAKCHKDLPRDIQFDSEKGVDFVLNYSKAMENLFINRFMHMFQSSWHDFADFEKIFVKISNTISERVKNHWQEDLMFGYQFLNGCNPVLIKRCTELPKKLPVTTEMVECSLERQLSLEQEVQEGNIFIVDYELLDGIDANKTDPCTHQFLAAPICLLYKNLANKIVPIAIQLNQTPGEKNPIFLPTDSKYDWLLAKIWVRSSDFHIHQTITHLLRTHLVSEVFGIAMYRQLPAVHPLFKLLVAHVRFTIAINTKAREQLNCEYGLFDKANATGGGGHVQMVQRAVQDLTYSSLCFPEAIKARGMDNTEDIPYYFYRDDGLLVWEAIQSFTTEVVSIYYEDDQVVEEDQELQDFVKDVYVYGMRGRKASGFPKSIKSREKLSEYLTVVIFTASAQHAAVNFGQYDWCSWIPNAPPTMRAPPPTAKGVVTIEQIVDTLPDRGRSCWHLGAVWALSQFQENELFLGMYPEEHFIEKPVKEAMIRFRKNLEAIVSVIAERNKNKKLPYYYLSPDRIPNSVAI
The experiment can be described thus: Inhibition of 5-LOX in rat RBL1 cells assessed as reduction in LTB4 production. It is filed as cell-based, RBL-1.

Another experiment concerns the target T2, Prostaglandin E synthase (Homo sapiens, UniProt O14684).
T2 sequence (O14684 whole entry): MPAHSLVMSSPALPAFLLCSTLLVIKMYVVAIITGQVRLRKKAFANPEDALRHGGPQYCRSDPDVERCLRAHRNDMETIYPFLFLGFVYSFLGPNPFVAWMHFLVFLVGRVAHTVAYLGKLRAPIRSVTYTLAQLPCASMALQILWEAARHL
The experiment can be described thus: Inhibition of mPGES1 in LPS-stimulated human whole blood assessed as reduction in PGE2 production incubated for 24 hrs at 37 degC by enzyme immunoassay.

Regarding `CC1(C)Cc2c(-c3ccccc3)c(-c3ccc(Cl)cc3)c(CC(=O)O)n2C1` [LICOFELONE], the values for the IC50 (in experiment [1]; on Prostaglandin E synthase) were 3.6 µM and 3.9 µM, respectively.
